In US20090275527A1, “SKIN AGING TREATMENT COMPRISING PAEONIFLORIN” (LG HOUSEHOLD & HEALTH CARE LTD., priority 2004, published 2009):
Marks after values point to notes of the source that are not given here.

Key:
hairless mice [1] = test: Prevention of DNA impairment caused by UV (in vivo); conditions: after 6 days 1 J UVB
Procedure: Prevention effect (%)=(Control value−Test value)/(Control value)×100 [Equation 2] Paeoniflorin dissolved in 80% ethanol was applied to the back of hairless mice. After 6 days, 1 J UVB was irradiated. Skin cells were taken and DNA impairment was measured.

Keratinocytes = test: Prevention against skin cell death and aging (X-Gal staining, flow cytometer), keratinocytes; format: cell-based, mouse
Procedure: (§1) Skin tissue was taken from a red skin mouse 3 days or less old. Hypodermic tissue was removed and the skin was treated with 0.25% trypsin for 12 hours. The skin was separated into the epidermis and the dermis. The epidermis was cultured to 75% confluence in an epidermis culture medium (K-SFM). The dermis was further treated with trypsin at 37° C. for 2 hours. Fibroblasts were taken from the dermis and cultured to 75% confluence in a DMEM culture medium containing 10% serum. Cell growth and division status was confirmed by specifically staining cell DNA. β-Gal is a material for specifically marking aged skin cells. Young cells and cells in the resting phase are left intact and only aged cells are specifically stained. Cultured keratinocytes and fibroblasts were treated with a minimum amount of X-Gal, respectively, and stained at 37 for 24 hours. Aged skin cells were stained to deep blue in 2-4 hours and gave the best result in 12-16 hours (see Proc. Natl. Acad. Sci. USA, 1995, 92: 9363-7). Then, stained cells (aged cells), living cells and dead cells were counted with a flow cytometer. In Table 4, “blank” refers to the control group containing no cells.

[2] = tested on: GSH-Px (total glutathione peroxidase); test: Guinea pig back skin application for 30 days: GSH-Px (DNTB method); format: in vivo; conditions: 3 (w/v)% sample, Content by Equation 1 relative to blank group
Procedure: (§2) 10 g of stearic acid (C18H36O2), 70 mL of water and 20 mL of glycerol, each heated to 80, were mixed homogeneously. After stirring for about 1 minute, 3 (w/v)% of paeoniflorin or vitamin E (positive control group) was added. After adding 0.1 (w/v)% of methyl paraben, stirring was performed for 1 minute. 1 mL of KOH was slowly added. After considerable emulsification had proceeded, stirring was performed until the temperature reached about 50.
(§3) Guinea pigs were grouped, each group consisting of 3 males and 3 females. An area of 3×3 cm^2 was shaved from the back of each guinea pig. For each guinea pig, the left side was treated with the sample prepared above and the right side was treated as a negative control group and a positive control group. Application was performed at 8:00 H and 16:00 H each day. Application was performed for 30 days, at about 5 mg/cm^2 each. On the 31st day, skin was taken from the back of each animal. Subcutaneous fat tissue was removed and collagen and lipid peroxide contents were measured with […]. 3) Result
(§4) SOD (superoxide dismutase) and GSH-Px (total glutathione peroxidase) are important antioxidative enzymes in living organisms. […]
(§5) MDA was detected using thiobarboturic acid. GSH-Px and SOD contents were measured by DNTB (5,5′-dithio-bis-2-nitrobenzoic acid) and nitrate reduction methods, respectively. […]

MDA (malondialdehyde) = test: Guinea pig back skin application for 30 days: lipid peroxide MDA (thiobarboturic acid); format: in vivo; conditions: 3 (w/v)% sample, Content by Equation 1 relative to blank group
Procedure: as §2, §3, §4, §5

hairless mice [3] = test: Prevention of wrinkles caused by UV; format: in vivo; conditions: 0.2% in 1,3-butylene glycol; UV 2MED, 12 weeks, three days a week
Procedure: Prevention effect of wrinkles caused by UV of paeoniflorin prepared in Preparation Example 1 was evaluated as follows using hairless mice. UV was irradiated to hairless mice with a solar stimulator at 2MED (minimum erythema dose). Irradiation was performed for 12 weeks, three days a week. Of the total of 10 mice, 0.2% paeoniflorin dissolved in 1,3-butylene glycol was applied to the sample treatment group and only 1,3-butylene glycol was applied to the control group. Wrinkles of each group were compared 12 weeks later.

fibroblasts [4] = test: Prevention against skin cell death and aging (X-Gal staining, flow cytometer), fibroblasts; format: cell-based, mouse
Procedure: as §1

[5] = tested on: normal human keratinocytes; test: Prevention of DNA impairment caused by UV (electrophoresis tail moment) in cultured keratinocytes; format: cell-based; conditions: for Average tail moment (n = 50) / Prevention effect (%): 12 hours, then 60 mJ UVB
Procedure: Prevention effect of DNA impairment caused by UV of paeoniflorin prepared in Preparation Example 1 was determined for normal human skin keratinocytes.
Cultured normal human keratinocytes were treated with paeoniflorin of concentrations thereof for 12 hours. The culture medium was removed and the cells were washed with PBS. 60 mJ UVB was irradiated and DNA impairment of the cells was checked. If there is DNA strand breakage inside the cell nucleus, an extended tail is shown toward the positive electrode during electrophoresis. Thus, impairment of DNA can be easily detected by electrophoresis. The average of tail moment of 50 randomly selected cells was used as a control value. The tail moment of paeoniflorin-treated cells was averaged. The control value and the resultant test value were put in Equation 2 below to calculate paeoniflorin's prevention effect of DNA impairment caused by UV.
Prevention effect (%)=(Control value−Test value)/(Control value)×100 [Equation 2]

guinea pig back skin = test: Guinea pig back skin application for 30 days: appearance, histology, collagen (HYP) content; format: in vivo; conditions: 3 (w/v)% sample; for Increase of collagenous fiber bundles (%) / Increase of collagen content in dermis (%): about 5 mg/cm^2 twice a day; for Increase of collagen content in dermis (%): HYP content
Procedure: as §2, §3
Back skin tissue was impregnated with paraffin and stained with HE (hematoxylin-eosin). Change of the skin tissue was observed. Skin collagen content was determined by adding 6 N hydrochloric acid to skin and measuring the HYP (hydroxyproline) content according to the chloramine-T oxidation method.

fibroblasts [6] = test: Effect on fibroblast cell activity (MTT analysis); format: cell-based, mouse; conditions: non-treated = 0
Procedure: Skin tissue was taken from a red skin mouse 3 days or less old. Hypodermic tissue was removed and the skin was treated with 0.25% trypsin for 12 hours. The skin was separated into the epidermis and the dermis. The epidermis was cultured to 75% confluence in an epidermis culture medium (K-SFM). The dermis was further treated with trypsin at 37° C. for 2 hours. Fibroblasts were taken from the dermis and cultured to 75% confluence in a DMEM culture medium containing 10% serum. Paeoniflorin prepared in Preparation Example 1 was dissolved in the cultured keratinocytes and fibroblasts and treated to 0.0004 M. Cell count was measured by MTT [3-(4,5-dimethylthiazol-2-yl)-2,5-diphenyltetrazolium bromide)] analysis to determine cell activity. A non-treated group and a group treated with 0.002 M vitamin C were tested as control groups.

[7] = tested on: SOD (superoxide dismutase); test: Guinea pig back skin application for 30 days: SOD (nitrate reduction method); format: in vivo; conditions: 3 (w/v)% sample, Content by Equation 1 relative to blank group
Procedure: as §2, §3, §4, §5

[8] = 0.01% in 80% ethanol applied to the back
[9] = 0.1% in 80% ethanol applied to the back
[10] = 1% in 80% ethanol applied to the back

Molecule: C[C@@]12C[C@@]3(O)O[C@@H](O1)[C@]1(COC(=O)c4ccccc4)[C@H]3C[C@@]12O[C@@H]1O[C@H](CO)[C@@H](O)[C@H](O)[C@H]1O [Paeoniflorin]
- Average tail moment (n = 50) (hairless mice [1]; [8]): 14.968 ± 5.883
- Prevention effect (%) (hairless mice [1]; [8]): 40.9%
- Average tail moment (n = 50) (hairless mice [1]; [9]): 18.930 ± 5.969
- Prevention effect (%) (hairless mice [1]; [9]): 25.3%
- Average tail moment (n = 50) (hairless mice [1]; [10]): 18.363 ± 5.463
- Prevention effect (%) (hairless mice [1]; [10]): 27.5%
- Cell aging rate (Keratinocytes; 0.0005 M): 24.7%
- Cell death rate (Keratinocytes; 0.0005 M): 12.3%
- Cell growth rate (Keratinocytes; 0.0005 M): 55.3%
- GSH-Px [2]: 29.51*
- MDA (MDA (malondialdehyde)): 29.57*
- Not improved (number of mice, wrinkles compared to the control group) (hairless mice [3]): 0
- Significantly improved (number of mice, wrinkles compared to the control group) (hairless mice [3]): 6
- Slightly improved (number of mice, wrinkles compared to the control group) (hairless mice [3]): 4
- Cell aging rate (fibroblasts [4]; 0.0005 M): 17.2%
- Cell death rate (fibroblasts [4]; 0.0005 M): 11.5%
- Cell growth rate (fibroblasts [4]; 0.0005 M): 18.4%
- Average tail moment (n = 50) ([5]; 0.0001%): 7.951 ± 1.887
- Prevention effect (%) ([5]; 0.0001%): 16.9%
- Average tail moment (n = 50) ([5]; 0.001%): 7.710 ± 2.161
- Prevention effect (%) ([5]; 0.001%): 19.4%
- Average tail moment (n = 50) ([5]; 0.01%): 7.409 ± 2.395
- Prevention effect (%) ([5]; 0.01%): 22.6%
- Average tail moment (n = 50) ([5]; 0.1%): 7.320 ± 2.534
- Prevention effect (%) ([5]; 0.1%): 23.5%
- DNA impairment prevention effect ([5]; treatment concentration range of 0.0001% to 0.1%): at least 16.9%
- Cell organelles observed in the dermis (guinea pig back skin): Expansion of RER (rough endoplasmie reticulum) and increase of mitochondria
- Histological observation (HE): change in the dermis (guinea pig back skin): an increase in collagenous fiber bundles was observed in the dermis
- Histological observation (HE): change in the epidermis (guinea pig back skin): no significant change in the epidermis
- Observation with the naked eyes of treated skin (guinea pig back skin): significant apparent improvement, such as soft and shiny skin
- Increase of collagenous fiber bundles (%) (guinea pig back skin): 18.1* %
- Increase of collagen content in dermis (%) (guinea pig back skin): 35.92* %
- Increase in cell activity (%) (fibroblasts [6]; 0.0004 M): 25.7%
- SOD [7]: 8.58*

Molecule: O=C1O[C@H]([C@@H](O)CO)C(O)=C1O [vitamin C, reference compound]
- Increase in cell activity (%) (fibroblasts [6]; 0.002 M): 14.4%

Molecule: Vitamin E [reference compound]
- Cell aging rate (Keratinocytes; 0.0004 M): 20.1%
- Cell death rate (Keratinocytes; 0.0004 M): 10.5%
- Cell growth rate (Keratinocytes; 0.0004 M): 23.3%
- GSH-Px [2]: 28.60*
- MDA (MDA (malondialdehyde)): 26.71*
- Cell aging rate (fibroblasts [4]; 0.0004 M): 22.8%
- Cell death rate (fibroblasts [4]; 0.0004 M): 15.4%
- Cell growth rate (fibroblasts [4]; 0.0004 M): 9.96%
- Increase of collagenous fiber bundles (%) (guinea pig back skin): 10.4* %
- Increase of collagen content in dermis (%) (guinea pig back skin): 29.86* %
- SOD [7]: 7.17*
